Assays:
[1] = target: T1, active mutant recombinant S6K1 (1-421, T412E) (Homo sapiens, UniProt P23443, T412E); assay: Inhibition of p70S6 kinase activity: phosphorylation of S6 peptide substrate, [γ-33]ATP filter assay; format: biochemical; conditions: peptide AKRRRLSSLRA 50 μM, ATP 100 μM, 20 minutes at 30° C.; read-out: IC50, concentration which inhibits 50% of the phosphorylation of the peptide substrate derived from the S6 ribosomal protein
T1 construct: S6K1 (1-421, T412E); purchased Upstate USA, Inc. Charlottesville Va; 14-333
T1 sequence (P23443 1-421 T412E): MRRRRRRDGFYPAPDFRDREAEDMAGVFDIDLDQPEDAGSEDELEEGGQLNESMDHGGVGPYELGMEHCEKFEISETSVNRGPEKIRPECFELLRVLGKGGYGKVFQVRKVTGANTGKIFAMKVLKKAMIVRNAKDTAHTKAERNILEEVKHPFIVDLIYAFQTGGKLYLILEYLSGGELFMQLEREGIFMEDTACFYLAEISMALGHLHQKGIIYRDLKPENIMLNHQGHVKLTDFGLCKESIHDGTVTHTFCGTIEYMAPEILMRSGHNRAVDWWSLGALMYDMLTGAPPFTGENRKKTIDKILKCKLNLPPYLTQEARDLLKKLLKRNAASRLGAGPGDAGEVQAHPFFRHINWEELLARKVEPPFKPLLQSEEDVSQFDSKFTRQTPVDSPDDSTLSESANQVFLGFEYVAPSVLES
From the text: (§1) The inhibitory activity on the PDGF receptor kinases is given by the concentration which inhibits 50% of the proliferation activity of Baf3 tel/PDGF cells respectively. The inhibitory activity on p70S6 kinase is given by the concentration which inhibits 50% of the phosphorylation of the peptide substrate derived from the S6 ribosomal protein (AKRRRLSSLRA, Upstate).
Measurement of the inhibition of the p70S6 kinase activity:
The active mutant recombinant S6K1 (1-421, T412E) (ref. 14-333, Upstate USA, Inc. Charlottesville Va.) (specific activity 298 U/mg) is incubated (20 mU/10 μl) with 8 concentrations of inhibitors solubilized at 1 mM in DMSO in the presence of the peptide substrate obtained from the S6 ribosomal protein (AKRRRLSSLRA, Upstate) (50 μM final) and of a cold ATP mixture (100 μM) and 1 μCi/well of [γ-33]ATP (NEN, Courtaboeuf, France). The enzyme reaction is carried out in a final volume of 50 μl in a 96-well filter plate (MultiScreen TM-PH opaque plate with Phospho-Cellulose cat # MAPHNOB, Millipore) previously soaked with 100 μl 1M Tris buffer pH 7.4 by adding the reagents of the S6 Kinase Assay kit (#17-136, Upstate) in the following order:
10 μl of 5% DMSO or various inhibitors at a 5× concentration
30 μl of reaction mixture containing the ADBI buffer (#20-108 Upstate, composed of 20 mM MOPS pH 7.2, 25 mM beta-glycerol phosphate, 5 mM EGTA, 1 mM sodium orthovanadate, 1 mM dithiothreitol), S6K1 (20 mU) and 250 μM peptide substrate [AKRRRLSSLRA] in ADBI buffer (#20-122, Upstate). The reaction is started by adding 10 μl of cold ATP/^33γATP mixture (1 μCi/50 μl as 500 μM ATP in ADBI buffer, 75 mM MgCl2) and then incubated for 20 minutes at 30° C. before being stopped by adding 20 μl of 7.5% phosphoric acid. The reaction mixture is filtered by aspiration under vacuum (Vacuum manifold, Millipore), the wells are rinsed twice with 200 μl of 7.5% phosphoric acid (2 minutes) and then twice with 200 μl of distilled H2O (2 minutes). After drying the plate, 25 μl/well of scintillant (Optiphase Super Mix, Wallac) are added and the radioactivity is detected with the Micro-Beta scintillation reader (Wallac). A negative control (all the reagents without peptide substrate) is prepared in order to determine the nonspecific binding of ^33γATP to the phosphocellulose filter which is subtracted from the experimental results.
It is thus apparent that the compounds of the invention have an inhibitory activity on the p70S6 kinase activity. This activity is given by the concentration which inhibits 50% of the phosphorylation of the peptide substrate derived from the S6 ribosomal protein (AKRRRLSSLRA, Upstate).

[2] = target: T2, fusion protein Tel/PDGF-R beta (BaF3 Tel/PDGF cells) (Homo sapiens, UniProt P09619); assay: Inhibition of PDGF beta receptor tyrosine kinase activity: proliferation of BaF3 Tel/PDGF cells; format: cell-based, murine; conditions: 72 h incubation, viable cells by cellular ATP (CellTiter-Glo); read-out: IC50, concentration which inhibits 50% of the proliferation of the Baf3 tel/PDGF cells
T2 construct: the transmembrane and intracellular part of the PDGF-R beta receptor; N-terminal part of transcription factor Tel (ETV6, own knowledge: UniProt P41212), containing the oligomerization domain; expressed in transfected cells; host or cells: murine hematopoietic cell line BaF/3 (BaF3 Tel/PDGF); the other entry of the earlier key: ETV6 (P41212, Transcription factor ETV6)
T2 sequence (P09619 with tags, fused parts or gaps): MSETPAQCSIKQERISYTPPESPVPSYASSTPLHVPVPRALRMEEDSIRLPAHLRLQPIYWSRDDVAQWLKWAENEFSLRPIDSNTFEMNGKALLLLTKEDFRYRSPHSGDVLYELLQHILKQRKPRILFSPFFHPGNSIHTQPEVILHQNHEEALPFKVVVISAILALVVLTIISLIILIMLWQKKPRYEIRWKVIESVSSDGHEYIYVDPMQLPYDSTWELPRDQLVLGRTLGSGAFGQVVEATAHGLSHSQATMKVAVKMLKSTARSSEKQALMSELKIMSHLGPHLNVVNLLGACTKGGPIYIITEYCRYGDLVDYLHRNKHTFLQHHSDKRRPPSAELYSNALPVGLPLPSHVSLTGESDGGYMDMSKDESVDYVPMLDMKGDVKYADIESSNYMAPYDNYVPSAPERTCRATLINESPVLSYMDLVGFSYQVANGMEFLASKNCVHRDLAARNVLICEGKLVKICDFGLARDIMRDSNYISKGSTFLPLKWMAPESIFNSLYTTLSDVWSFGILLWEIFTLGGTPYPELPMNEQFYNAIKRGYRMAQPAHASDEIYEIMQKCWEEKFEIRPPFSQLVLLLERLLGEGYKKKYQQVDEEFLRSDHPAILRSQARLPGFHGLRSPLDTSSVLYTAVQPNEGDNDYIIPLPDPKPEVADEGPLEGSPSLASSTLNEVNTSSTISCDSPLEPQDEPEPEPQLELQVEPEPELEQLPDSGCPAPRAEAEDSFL
From the text: as §1
Measurement of the inhibition of the PDGF beta receptor (PDGF-Rβ) tyrosine kinase activity (Baf-3 tel/PDGFRβ):
This test consists in evaluating the effects of the compounds on the PDGF beta receptor tyrosine kinase activity.
The inhibitory effect of the compounds according to the invention toward the PDGF-R receptor tyrosine kinase activity was evaluated on the hematopoietic murine cell line BaF/3 transfected with a plasmid encoding the fusion protein Tel/PDGF-R beta. This fusion protein is found in chronic myelomonocytic myeloid leukemias (CMML). It comprises the N-terminal part of the transcription factor Tel and the transmembrane and intracellular part of the PDGF-R beta receptor. This fusion protein is present in dimerized form (presence of an oligomerization domain in the N-terminal part of Tel) and therefore leads to the constitutive activity of the PDGF-R beta kinase domain. This BaF3 Tel/PDGF line has been described in the literature several times and in particular in detail in the article by CARROLL, M. et al., PNAS, 1996, 93, 14845-14850, CARROLL, M. et al., Blood 2002, 99, 14845-14850.
The BaF3 Tel/PDGF cells are washed with phosphate buffer and inoculated in 96-well plates, at the density of 5×10^4 cells/ml ([…]), in RPMI 1640 containing 10% FCS, in the presence or absence of the compounds to be tested. After 72 h of incubation, the viable cells are quantified by measuring the cellular ATP using the kit CellTiter-Glo®(Promega, Cat G7571). The cells are treated according to the instructions given by the kit supplier and the luminescence is measured with the aid of a Luminoskan (Ascent, Labsystem) with the following parameters: measurement: single; integration time: 1000 ms, lag time: 5 s.
It is thus apparent that the compounds according to the invention have an inhibitory activity on the PDGF-R beta tyrosine kinase activity. This activity is given by the concentration which inhibits 50% of the proliferation of the Baf3 tel/PDGF cells (IC50).

Row | IC50 [1] [nM] | melting point [°C] | SMILES | IC50 [2] [nM]
1 | 412 | 311 | CCn1c(N)c(C(=O)NC)c(=O)c2ccc(-c3ccc(NS(=O)(=O)c4cccc(Cl)c4Cl)c(Cl)c3)nc21 [compound No. 8, 2-amino-7-(3-chloro-4-{[(2,3-dichlorophenyl)sulfonyl]amino}phenyl)-1-ethyl-N-methyl-4-oxo-1,4-dihydro-1,8-naphthyridine-3-carboxamide] | 
2 | 240 | 230 | CCn1c(N)c(C(=O)NC)c(=O)c2ccc(-c3ccc(NS(=O)(=O)c4cc(Cl)ccc4Cl)c(F)c3)nc21 [compound No. 9, 2-amino-7-(4-{[(2,5-dichlorophenyl)sulfonyl]amino}-3-fluorophenyl)-1-ethyl-N-methyl-4-oxo-1,4-dihydro-1,8-naphthyridine-3-carboxamide] | 
3 | 224 | 340 | CCn1c(N)c(C(=O)NC)c(=O)c2ccc(-c3ccc(NS(=O)(=O)c4cccc(Cl)c4Cl)cc3F)nc21 [compound No. 14, 2-amino-7-(4-{[(2,3-dichlorophenyl)sulfonyl]amino}-2-fluorophenyl)-1-ethyl-N-methyl-4-oxo-1,4-dihydro-1,8-naphthyridine-3-carboxamide] | 
4 | 132 | 333 | CCn1c(N)c(C(=O)NC)c(=O)c2ccc(-c3ccc(NS(=O)(=O)c4cccc(Cl)c4Cl)c(F)c3)nc21 [compound No. 18, 2-amino-7-(4-{[(2,3-dichlorophenyl)sulfonyl]amino}-3-fluorophenyl)-1-ethyl-N-methyl-4-oxo-1,4-dihydro-1,8-naphthyridine-3-carboxamide] | 12

Reference: patent US20130178472A1, “ARYLSULFONAMIDE PYRIDINE-PYRIDINONE DERIVATIVES, PREPARATION OF SAME, AND THERAPEUTIC USE THEREOF” (SANOFI, priority 2010, published 2013)
